The values below come from patent US12240837B2, “Chemokine receptor modulators and uses thereof” (RAPT THERAPEUTICS, INC., priority 2022, dated 2025).

In the test the target is T1, CCR4 receptor (Homo sapiens, UniProt P51679).
T1 construct: beta-galactosidase enzyme-fragment tag (receptor modification for beta-arrestin complementation); expressed in transfected cells; host or cells: CHO-K1
T1 sequence (P51679 1-360): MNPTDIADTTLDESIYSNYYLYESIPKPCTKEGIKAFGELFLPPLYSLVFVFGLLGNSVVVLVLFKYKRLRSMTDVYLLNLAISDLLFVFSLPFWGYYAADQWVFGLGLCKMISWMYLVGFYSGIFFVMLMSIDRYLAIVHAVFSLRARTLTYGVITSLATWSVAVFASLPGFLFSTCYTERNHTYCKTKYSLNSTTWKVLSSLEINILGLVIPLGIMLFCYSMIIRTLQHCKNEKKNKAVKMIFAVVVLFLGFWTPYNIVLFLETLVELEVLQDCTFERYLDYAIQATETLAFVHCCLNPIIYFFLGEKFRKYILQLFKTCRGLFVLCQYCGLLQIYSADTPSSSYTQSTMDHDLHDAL
Description: CCR4 antagonist activity in beta-arrestin cellular assay (PathHunter chemiluminescence). In kind it is cell-based. Conditions: CHO-K1 cells expressing CCR4; 30 min pre-incubation; CCL22 challenge at EC80 (15 nM) for 90 minutes; read-out: Potency (CCR4 antagonist IC50 in the β-arrestin assay). How it is done:
CCR4 Antagonistic Activity was assessed in Beta-Arrestin Cellular Assay. Compounds were assessed in CHO-K1 cells expressing the CCR4 receptor modified to enable β-glactosidase detection of p-arrestin agonist activity stimulated by CCL22 in a chemiluminescence assay. Cells were seeded in a total volume of 20 μL into white walled, 384-well microplates and incubated at 37° C. prior to testing. Cells were pre-incubated with test compound for 30 min at 37° C. followed by agonist challenge with CCL22 at the EC80 concentration (15 nM) for 90 minutes. Assay signal was generated through a single addition of 12.5 or 15 μL (50% v/v) of PathHunter Detection reagent cocktail, followed by a one hour incubation at room temperature. Microplates were read following signal generation with a PerkinElmer Envision™ instrument for chemiluminescent signal detection. Antagonist activity was analyzed using CBIS data analysis suite (ChemInnovation, CA). Antagonist activity was characterized as percentage inhibition calculated using the following formula: % Inhibition=100%×(1−(mean RLU of test sample−mean RLU of vehicle control)/(mean RLU of EC80 control−mean RLU of vehicle control)).
An IC50 of >500 nM is designated as Potency C, an IC50 of between 500 nM and 200 nM is designated as Potency B and an IC50 of <200 nM is designated as Potency A.
With `Cc1nc(N2CCC(C3CCCN(C4CC(C)(C(=O)O)C4)C3)CC2)nc(N[C@H](C)c2ccc(Cl)cc2Cl)c1Cl` (stereo partly drawn) [Example 2, 3-(1′-(5-chloro-4-(((R)-1-(2,4-dichlorophenyl)ethyl)amino)-6-methylpyrimidin-2-yl)-[3,4′-bipiperidin]-1-yl)-1-methylcyclobutane-1-carboxylic Acid], the IC50 is under 0.2 µM. Turning to `C[C@@H](Nc1nc(N2CCC(C3CCCCN3)C2)ncc1Cl)c1ccc(Cl)cc1Cl` (mixture of isomers) [Example 8, 5-chloro-N—((R)-1-(2,4-dichlorophenyl)ethyl)-2-(3-(piperidin-2-yl)pyrrolidin-1-yl)pyrimidin-4-amine], the IC50 was under 0.2 µM. To `Cc1nc(N2CCC(C3CCCCN3C3CC(C)(C(=O)O)C3)C2)nc(N[C@H](C)c2ccc(Cl)cc2Cl)c1Cl` (stereo partly drawn) [Example 11, 3-(2-(1-(5-chloro-4-(((R)-1-(2,4-dichlorophenyl)ethyl)amino)-6-methylpyrimidin-2-yl)pyrrolidin-3-yl)piperidin-1-yl)-1-methylcyclobutane-1-carboxylic Acid] belongs 0.2 to 0.5 µM; to `Cc1nc(N2CCC(C3CCCCN3)C2)nc(N[C@H](C)c2ccc(Cl)cc2Cl)c1Cl` (mixture of isomers) [Example 10, 5-chloro-N—((R)-1-(2,4-dichlorophenyl)ethyl)-6-methyl-2-(3-(piperidin-2-yl)pyrrolidin-1-yl)pyrimidin-4-amine], 0.2 to 0.5 µM. With `Cc1nc(N2CCC(C3CCCN(C(C)C(=O)O)C3)CC2)nc(N[C@H](C)c2ccc(Cl)cc2Cl)c1Cl` (stereo partly drawn) [Example 14, 2-(1′-(5-chloro-4-(((R)-1-(2,4-dichlorophenyl)ethyl)amino)-6-methylpyrimidin-2-yl)-[3,4′-bipiperidin]-1-yl)propanoic Acid] the figure was under 0.2 µM; with `C[C@@H](Nc1nc(N2CCC(C3CCCN(CCC(=O)O)C3)CC2)ncc1Cl)c1ccc(Cl)cc1Cl` (stereo partly drawn) [Example 16, 3-(1′-(5-chloro-4-(((R)-1-(2,4-dichlorophenyl)ethyl)amino)pyrimidin-2-yl)-[3,4′-bipiperidin]-1-yl)propanoic Acid], under 0.2 µM; with `C[C@@H](Nc1nc(N2CCC(C3CCCCN3C3CC(C)(C(=O)O)C3)C2)ncc1Cl)c1ccc(Cl)cc1Cl` (stereo partly drawn) [Example 9, 3-(2-(1-(5-chloro-4-(((R)-1-(2,4-dichlorophenyl)ethyl)amino)pyrimidin-2-yl)pyrrolidin-3-yl)piperidin-1-yl)-1-methylcyclobutane-1-carboxylic Acid], under 0.2 µM. To `Cc1nc(N2CCC(C3CN(C4CC(C)(C(=O)O)C4)C3)C2)nc(N[C@H](C)c2ccc(Cl)cc2Cl)c1Cl` (mixture of isomers) [Example 3, 3-(3-(1-(5-chloro-4-(((R)-1-(2,4-dichlorophenyl)ethyl)amino)-6-methylpyrimidin-2-yl)pyrrolidin-3-yl)azetidin-1-yl)-1-methylcyclobutane-1-carboxylic Acid] belongs over 0.5 µM.

Turning to `CC(C(=O)O)N1CCCC(C2CCN(c3ncc(Cl)c(N[C@H](C)c4ccc(Cl)cc4Cl)n3)CC2)C1` (stereo partly drawn) [Example 15, 2-(1′-(5-chloro-4-(((R)-1-(2,4-dichlorophenyl)ethyl)amino)pyrimidin-2-yl)-[3,4′-bipiperidin]-1-yl)propanoic Acid], the IC50 was under 0.2 µM.

`C[C@@H](Nc1nc(N2CCC(C3CCN(C4CC(C)(C(=O)O)C4)C3)C2)ncc1Cl)c1ccc(Cl)cc1Cl` (stereo partly drawn) [Example 7, 3-(1′-(5-chloro-4-(((R)-1-(2,4-dichlorophenyl)ethyl)amino)pyrimidin-2-yl)-[3,3′-bipyrrolidin]-1-yl)-1-methylcyclobutane-1-carboxylic Acid]: the IC50 fell in the range of 0.2 to 0.5 µM.

Take `Cc1nc(N2CCC(C3CCCN(C4CC(C(=O)O)C4)C3)CC2)nc(N[C@H](C)c2ccc(Cl)cc2Cl)c1Cl` (stereo partly drawn) [Example 13, 3-(1′-(5-chloro-4-(((R)-1-(2,4-dichlorophenyl)ethyl)amino)-6-methylpyrimidin-2-yl)-[3,4′-bipiperidin]-1-yl)cyclobutane-1-carboxylic Acid]: the IC50 was under 0.2 µM. With `Cc1nc(N2CCC(C3CCN(C4CC(C)(C(=O)O)C4)C3)C2)nc(N[C@H](C)c2ccc(Cl)cc2Cl)c1Cl` (stereo partly drawn) [Example 4, 3-(1′-(5-chloro-4-(((R)-1-(2,4-dichlorophenyl)ethyl)amino)-6-methylpyrimidin-2-yl)-[3,3′-bipyrrolidin]-1-yl)-1-methylcyclobutane-1-carboxylic Acid] the figure was 0.2 to 0.5 µM; with `C[C@@H](Nc1nc(N2CCC(C3CCCN(C4CC(C)(C(=O)O)C4)C3)C2)ncc1Cl)c1ccc(Cl)cc1Cl` (stereo partly drawn) [Example 5, 3-(3-(1-(5-chloro-4-(((R)-1-(2,4-dichlorophenyl)ethyl)amino)pyrimidin-2-yl)pyrrolidin-3-yl)piperidin-1-yl)-1-methylcyclobutane-1-carboxylic Acid], under 0.2 µM; with `Cc1nc(N2CCC(C3CCCN(C4CC(C)(C(=O)O)C4)C3)C2)nc(N[C@H](C)c2ccc(Cl)cc2Cl)c1Cl` (stereo partly drawn) [Example 1, 3-(3-(1-(5-chloro-4-(((R)-1-(2,4-dichlorophenyl)ethyl)amino)-6-methylpyrimidin-2-yl)pyrrolidin-3-yl)piperidin-1-yl)-1-methylcyclobutane-1-carboxylic Acid], under 0.2 µM. `Cc1nc(N2CCC(C3CCCN(CCC(=O)O)C3)CC2)nc(N[C@H](C)c2ccc(Cl)cc2Cl)c1Cl` (stereo partly drawn) [Example 17, 3-(1′-(5-chloro-4-(((R)-1-(2,4-dichlorophenyl)ethyl)amino)-6-methylpyrimidin-2-yl)-[3,4′-bipiperidin]-1-yl)propanoic Acid]: the IC50 was under 0.2 µM.

As for `C[C@@H](Nc1nc(N2CCC(C3CCCN(C4CC(C)(C(=O)O)C4)C3)CC2)ncc1Cl)c1ccc(Cl)cc1Cl` (mixture of isomers) [Example 6, 3-(1′-(5-chloro-4-(((R)-1-(2,4-dichlorophenyl)ethyl)amino)pyrimidin-2-yl)-[3,4′-bipiperidin]-1-yl)-1-methylcyclobutane-1-carboxylic Acid], the IC50 was under 0.2 µM. To `C[C@@H](Nc1nc(N2CCC(C3CCCN(C4CC(C(=O)O)C4)C3)CC2)ncc1Cl)c1ccc(Cl)cc1Cl` (stereo partly drawn) [Example 12, 3-(1′-(5-chloro-4-(((R)-1-(2,4-dichlorophenyl)ethyl)amino)pyrimidin-2-yl)-[3,4′-bipiperidin]-1-yl)cyclobutane-1-carboxylic Acid] belongs under 0.2 µM.

Usually IC50 stands for the concentration that gives 50% inhibition.
